The text below walks through data of ChEMBL document CHEMBL1135559, “Vacuolar-type H(+)-ATPase inhibitory activity of synthetic analogues of the concanamycins: is the hydrogen bond network involving the lactone carbonyl, the hemiacetal hydroxy group, and the C-19 hydroxy group essential for the biological activity of the concanamycins?” (Bioorg Med Chem Lett, 2002).

Common to all, as to format: functional, cell-based
What all share (conditions): Homo sapiens

Assay [1] has as its system A-431. Kind of assay: Cell viability in A431 cells unstimulated with EGF was tested when incubated with concentration up to 10 uM after 48 h; Did not affect the viability.
Assay [2] deals with A-431. Put plainly: Cell viability in A431 cells when stimulated with EGF was tested when incubated with concentration 0.01 uM after 48 h; Cell death.
Assay [3] deals with A-431. Put plainly: Cell viability in A431 cells when stimulated with EGF was tested when incubated with concentration in the range of 1-10 uM of the compound after 48 h; Cell death.
Assay [4] deals with A-431. Kind of assay: Cell viability in A431 cells unstimulated with EGF was tested when incubated with concentration in the range of 1-10 uM after 48 h; Did not affect the viability.
For assay [5], the system named is A-431. Kind of assay: Cell viability in A431 cells unstimulated with EGF was tested when incubated with concentration at 2 uM after 48 h; Did not affect the viability.
For assay [6], the system named is A-431. Kind of assay: Cell viability in A431 cells when stimulated with EGF was tested when incubated with concentration 2 uM after 48 h; Cell death.
For assay [7], the system named is A-431. Put plainly: Cell viability in A431 cells when stimulated with EGF was tested when incubated with concentration up to 10 uM after 48 h; Did not affect the viability.

With `CC[C@@H]([C@@H](O)[C@H](C)C/C(C)=C/C=C/[C@H](OC)[C@H](O)[C@@H](C)COC(c1ccccc1)(c1ccccc1)c1ccc(OC)cc1)[C@H](O)[C@H](C)/C=C(C)/C=C(\OC)C(=O)OC`, the Activity entry with A-431 [1] and with A-431 [2] was “No effect” throughout.

Take `CC[C@H]1[C@@H](O)[C@H](C)C/C(C)=C/C=C/[C@H](OC)[C@@H]([C@@H](C)CO)OC(=O)/C(OC)=C/C(C)=C/[C@@H](C)[C@H]1O`: the Activity entry in the assay with A-431 [3] and with A-431 [4] was “No effect” in each case.

For the compound `C/C=C/[C@H]1O[C@@](O)([C@@H](C)[C@H](O)[C@H](C)[C@H]2OC(=O)/C(OC)=C/C(C)=C/[C@@H](C)[C@@H](O)[C@@H](CC)[C@@H](O)[C@H](C)C/C(C)=C/C=C/[C@@H]2OC)C[C@@H](O)[C@@H]1C`, the Activity entry with A-431 [5] and in the assay on A-431 [6] was “No effect” throughout.

As for `CC[C@H]1[C@@H](O)[C@H](C)C/C(C)=C/C=C/[C@H](OC)[C@@H]([C@@H](C)COC(c2ccccc2)(c2ccccc2)c2ccc(OC)cc2)OC(=O)/C(OC)=C/C(C)=C/[C@@H](C)[C@H]1O`, the Activity entry in the assay with A-431 [7] and in the assay with A-431 [1] was “No effect” in each case.
